The text below walks through data of patent publication US11649253B2, “Terbium and dysprosium complexes with optimised antenna, used as luminescent markers” (ECOLE NORMALE SUPERIEURE DE LYON, priority 2017, dated 2023).

Several values for one entry are separate records, joined by “and”; a condition that tells them apart may be missing. Equal values may be shown once.

Data set [1] can be described thus: Photophysical properties of the complexes measured in methanol. Format: physicochemical. The note with it: for λ max: absorption; for B at λ max: brightness at λ max; for ε: molar extinction coefficient; for Φ: quantum yield. Here is the method: (§1) The NMR (^1H, ^13C) spectra were recorded on a Bruker Avance device at a frequency of 300 MHz or 500.10 MHz, and 75 MHz or 125.75 MHz, for ^1H and ^13C respectively. Chemical shifts (δ) are expressed in parts per million (ppm) with respect to […] used as an internal standard and using the solvents indicated. The coupling constants (J) are expressed in Hz and the following notations are used: s (singlet), br (broad), d (doublet), t (triplet), dd (doublet of doublets), m (multiplet). The high-resolution mass spectra were recorded at the Lyon Common Mass Spectrometry Centre (Claude Bernard Lyon University, Lyon, France) on a MicroTOFQII instrument equipped with a positive ESI source. […] Purifications were carried out by chromatographic column on silica gel (silica gel 0.035-0.070 mm, 60 A). The solvents used for the reactions were purchased from Aldrich or Acros Organics as dry or extra dry solvents and stored on 3 Å molecular sieves and the reagents used were purchased from Aldrich, Acros Organics or Alfa Aesar. The UV/Vis absorption spectra were recorded on a JASCO V670 spectrometer; the emission spectra on a JOBIN-YVON fluorolog 3 spectrofluorimeter. Retention times were performed on an Agilent Technologies 1260 device equipped with a Waters XBridge RP-C18 column ([…], 4.6×100 mm). The chromatographic system used is 0.25 M ammonium formate-MeCN (v/v) as eluents: isocratic 15% MeCN (2 min), linear gradient 15 to 100% MeCN (16 min), isocratic 100% MeCN (4 min), at a rate of 1 mL/min, UV detection at 210 and 252 nm. Cellular imaging tests were performed using a solution concentrated in complex in DMSO to obtain a final complex concentration in the order of […] in cellular medium (PBS) with <1% DMSO. The T24 cells are prefixed to the PFA. The biphotonic absorption spectra were performed with a confocal laser scanning microscope LSM710 NLO (Carl Zeiss).
The properties of complexes Ia.1-Ia.6 and 8 were evaluated in methanol (Table 1) and water (Table 2). These properties were compared to those of complex 9, described in the document, Dalton Trans.

Data set [2] can be described thus: Photophysical properties of the complexes measured in water. Format: physicochemical. The note with it: for λ max: absorption; for B at λ max: brightness at λ max; for ε: molar extinction coefficient. Here is the method: as §1
The properties of complexes Ia.1-Ia.6 and 8 were evaluated in methanol (Table 1) and water (Table 2). These properties were compared to those of complex 9, described in the document, Dalton Trans. 2015, 44, 4918, and of the following structure:
The spectroscopic properties of complexes Ia.2 and Ia.4 are stored in water (Table 2).

`COc1ccc(-c2cc(CN3CCN(Cc4cc(-c5ccc(OC)cc5)cc(C(=O)[O-])n4)CCN(Cc4cc(-c5ccc(OC)cc5)cc(C(=O)[O-])n4)CC3)nc(C(=O)[O-])c2)cc1.[Tb+3]` [complex 9, reference compound]: in data set [1] (methanol), the λ max was 308 nm, the “B at λ max” value is 3900 L/mol/cm, the ε is 33000 L/mol/cm and the Φ came to 12%.
As to `COCCOCCOCCOc1cc(C)c(-c2cc(CN3CCN(Cc4cc(-c5c(C)cc(OCCOCCOCCOC)cc5C)cc(C(=O)[O-])n4)CCN(Cc4cc(-c5c(C)cc(OCCOCCOCCOC)cc5C)cc(C(=O)[O-])n4)CC3)nc(C(=O)[O-])c2)c(C)c1.[Tb+3]` [Ia.4], the λ max in data set [2] (absorption band at 275 nm) was 275 nm; in data set [2] (absorption band at 300 nm), 300 nm; in data set [1] (methanol) it was 302 nm and 274 nm. The “B at 330 nm” value in data set [2] (brightness at 330 nm) was 2500 L/mol/cm; in data set [1] (brightness at 330 nm, methanol), 3400 L/mol/cm. In addition, the “B at λ max” value in data set [2] (absorption band at 275 nm) is 14000 L/mol/cm; in data set [2] (absorption band at 300 nm) it was 7800 L/mol/cm; in data set [1] (methanol), 8500 L/mol/cm and 12000 L/mol/cm. Moreover, the T in data set [2] (luminescence lifetime) worked out at 1.46 ms; in data set [1] (luminescence lifetime, methanol), 1.59 ms. For the same molecule, the ε in data set [2] (absorption band at 275 nm) was 21000 L/mol/cm; in data set [2] (absorption band at 300 nm), 11800 L/mol/cm; in data set [1] (methanol), 13000 L/mol/cm and 19000 L/mol/cm. The figures for the Φ in data set [2] (quantum yield) and in data set [1] (methanol) were 66% and 65%, respectively. For the same molecule, the “decrease of the molar extinction coefficient on introduction of a second methyl group” value in data set [1] (Ia.4 compared with its counterpart Ia.2) is on record as “more than 50%”.
